# From patent publication US10472341B2, “Bicyclic tetrahydrothiazepine derivatives useful for the treatment of neoplastic and/or infectious diseases” (APEIRON BIOLOGICS AG, priority 2015, dated 2019)
# Counter-ions that a name gives are not always drawn.
# Tests used:
# [1] = test system: OT-II cells; test: OT-II transfer model, intravenous administration; type: in vivo, mouse; settings: LPS & OVA
# Procedure: (§1) • Single cell suspension of splenocytes was prepared from the spleen by rinsing cells through a sterile 70 μm filter with PBS • Cells were collected by centrifugation in an 15 ml tube, the cell pellet was resuspended in 1 ml of Erylyse buffer and incubated at room temperature for 5 minutes, tubes were filled up with PBS and cells were washed twice • Cells were counted and resuspended in the desired buffer volume for MACS-enrichment or flow cytometric analysis Isolation of CD4 T Cells from OT-II Transgenic Mice • Splenocytes were resuspended in MACS buffer ([…] MACS-buffer/10^7 cells) • CD4 T cells were isolated using the CD4 T cell isolation kit (Miltenyi) with LS-columns following manufacturer's recommendations CFSE-Labeling of T Cells • Cells were resuspended in PBS with 0.1% BSA at 1×10^7 cells/ml and CFSE-solution was added to final concentration of 2.5 μM CFSE • Incubated for 10 min at 37° C., swung each 2 min • Same volume of FCS added and incubated for 5 min at room temperature • Cells were washed twice with RMPI-10% FCS medium • Cells were counted and resuspended in PBS or medium at desired concentration OT-II Transfer • Day 0: OT-II cells were transferred in PBS (3*10^6. Cells in 100 μl PBS) by retro-orbital injection • Day 1: WT mice got OVA vaccinated (subcut. flank, 10 μg LPS, 2 μg OVA per animal) • 2 & 4 h later compounds were administrated; for oral dosing compound was used as suspension (0.5% methylcellulose in water), for i.v. dosing compound was solubilized in DMSO and diluted with PBS • Day 2: compounds were administrated twice in the morning (with 2 h time interval) • Day 3: Mice were sacrificed & splenocytes were isolated • T cell proliferation & phenotype was determined by flow cytometry • Flow cytometry-Staining (all Abs purchased from eBioscience and used as recommended by the manufacturer): B220-eF450, CD4-PE, CD25PerCPCy5.5, CD69-PC7, TCRVa2-APC, CD8-AF700, CD3-eF780; CFSE; 7-AAD • Acquisition on Beckman-Coulter Gallios, Analysis using Kaluza Software OT-I Transfer to Mice with B16-F10-OVA Tumors • Day 0: 100000 B16-F10-OVA tumor cells were inoculated subcutaneously at the flank of WT-mice • Day 7: OT-I cells were transferred in PBS (3*10^6. […]
# [2] = test system: OT-I T cells; test: OT-I transfer to mice with B16-F10-OVA tumors: tumor antigen-specific T cell proliferation; type: in vivo, mouse; settings: B16-F10-OVA tumor bearing mice; for OT-I T cell proliferation: 10 mg/kg orally; for Proliferation [% proliferated OT-I T cells]: 10 mg/kg dosed orally
# Procedure: as §1
# [3] = test system: CD8-positive immune cells & M21 melanoma cells; test: CD8-positive immune cells alone or in co-culture with M21 melanoma cells: IFN-gamma, IL-2, granzyme; type: cell-based, human
# Procedure: Isolated PBMCs, NK cells or CD8 positive cells were plated in Xvivo medium at 1.5*10^5 cells per in 96 well culture plates in the presence of 0.3*10^4 tumor cells where indicated. Cytokine secretion was determined by ELISA, immune cell activation (using Beckman-Coulter Abs CD25-PC5, CD69-PC7), cell viability and numbers by flow cytometry (Beckman-Coulter FC500 or Gallios) using 7-AAD exclusion as criterion for living cells. CD8-positive immune cells were isolated from PBMCs and were incubated with and without compound example 67, either alone or in co-culture with M21 melanoma cells.
# [4] = 0.03 μM, CD8 only (no tumor cells)
# [5] = 0.10 μM, CD8 only (no tumor cells)
# [6] = 0.30 μM, CD8 only (no tumor cells)
# [7] = 1 μM, CD8 only (no tumor cells)
# [8] = 3 μM, CD8 only (no tumor cells)
# [9] = 10 μM, CD8 only (no tumor cells)
structure (smiles),measurement,setting,value
"Cl.N[C@H]1CS(=O)(=O)c2cc(F)c(C(=O)NCCCC(F)(F)F)cc2N(Cc2ccc(Cl)cc2)C1=O [Example 70, (3R)-3-amino-5-[(4-chlorophenyl)methyl]-8-fluoro-1,1,4-trioxo-N-(4,4,4-trifluoro-butyl)-2,3,4,5-tetrahydro-1λ^6,5-benzothiazepine-7-carboxamide hydrochloride]","Proliferated OT-II cells, average",[1]; 1 mg/kg,18.70 % gated
same,"CD69+ cells, B cells of recipient animal",[1]; 10 mg/kg,8.62 % gated
same,"CD69+ cells, CD8 T cells of recipient animal",[1]; 10 mg/kg,7.08 % gated
same,"CD69+ cells, WT CD4 T cells of recipient animal",[1]; 10 mg/kg,12.26 % gated
same,"CD69+ cells, transferred OT-II cells",[1]; 10 mg/kg,59.47 % gated
"N[C@H]1CS(=O)(=O)c2cc(F)c(C(=O)NC3CC3(F)F)cc2N(Cc2ccc(Cl)cc2)C1=O (stereo partly drawn) [Example 1, (3R)-3-amino-5-[(4-chlorophenyl)methyl]-N-(2,2-difluorocyclopropyl)-8-fluoro-1,1,4-trioxo-2,3,4,5-tetrahydro-1λ^6,5-benzothiazepine-7-carboxamide hydrochloride]",OT-I T cell proliferation,[2]; spleen,significantly (p=0.006) increased
same,OT-I T cell proliferation,[2]; tumor-draining lymphnodes,highly significantly (p=0.0002) enhanced
same,Proliferation [% proliferated OT-I T cells],[2]; Lymph node,12.28%
same,Proliferation [% proliferated OT-I T cells],[2]; Spleen,8.62%
"CCCCNC(=O)c1ccc2c(c1)N(Cc1ccc(OC(F)(F)F)cc1)C(=O)[C@@H](N)CS2(=O)=O.Cl [Example 67, (3R)-3-amino-N-butyl-1,1,4-trioxo-5-{[4-(trifluoromethoxy)phenyl]methyl}-2,3,4,5-tetrahydro-1λ^6,5-benzothiazepine-7-carboxamide hydrochloride]",Granzyme [ng/ml] avg,"[3]; 0.03 μM, CD8 cells & M21",0.10 ng/mL
same,IFN-gamma [ng/ml] avg,"[3]; 0.03 μM, CD8 cells & M21",0.06 ng/mL
same,IL-2 [ng/ml] avg,"[3]; 0.03 μM, CD8 cells & M21",1.32 ng/mL
same,Granzyme [ng/ml] avg,[3]; [4],0.01 ng/mL
same,IFN-gamma [ng/ml] avg,[3]; [4],Below
same,IL-2 [ng/ml] avg,[3]; [4],Below
same,Granzyme [ng/ml] avg,"[3]; 0.10 μM, CD8 cells & M21",0.12 ng/mL
same,IFN-gamma [ng/ml] avg,"[3]; 0.10 μM, CD8 cells & M21",0.15 ng/mL
same,IL-2 [ng/ml] avg,"[3]; 0.10 μM, CD8 cells & M21",2.13 ng/mL
same,Granzyme [ng/ml] avg,[3]; [5],0.01 ng/mL
same,IFN-gamma [ng/ml] avg,[3]; [5],Below
same,IL-2 [ng/ml] avg,[3]; [5],Below
same,Granzyme [ng/ml] avg,"[3]; 0.30 μM, CD8 cells & M21",0.18 ng/mL
same,IFN-gamma [ng/ml] avg,"[3]; 0.30 μM, CD8 cells & M21",0.20 ng/mL
same,IL-2 [ng/ml] avg,"[3]; 0.30 μM, CD8 cells & M21",2.75 ng/mL
same,Granzyme [ng/ml] avg,[3]; [6],0.01 ng/mL
same,IFN-gamma [ng/ml] avg,[3]; [6],Below
same,IL-2 [ng/ml] avg,[3]; [6],Below
same,Granzyme [ng/ml] avg,"[3]; 1 μM, CD8 cells & M21",0.34 ng/mL
same,IFN-gamma [ng/ml] avg,"[3]; 1 μM, CD8 cells & M21",0.40 ng/mL
same,IL-2 [ng/ml] avg,"[3]; 1 μM, CD8 cells & M21",3.38 ng/mL
same,Granzyme [ng/ml] avg,[3]; [7],0.02 ng/mL
same,IFN-gamma [ng/ml] avg,[3]; [7],Below
same,IL-2 [ng/ml] avg,[3]; [7],Below
same,Granzyme [ng/ml] avg,"[3]; 3 μM, CD8 cells & M21",0.43 ng/mL
same,IFN-gamma [ng/ml] avg,"[3]; 3 μM, CD8 cells & M21",0.54 ng/mL
same,IL-2 [ng/ml] avg,"[3]; 3 μM, CD8 cells & M21",3.44 ng/mL
same,Granzyme [ng/ml] avg,[3]; [8],0.01 ng/mL
same,IFN-gamma [ng/ml] avg,[3]; [8],Below
same,IL-2 [ng/ml] avg,[3]; [8],Below
same,Granzyme [ng/ml] avg,"[3]; 10 μM, CD8 cells & M21",0.37 ng/mL
same,IFN-gamma [ng/ml] avg,"[3]; 10 μM, CD8 cells & M21",0.68 ng/mL
same,IL-2 [ng/ml] avg,"[3]; 10 μM, CD8 cells & M21",3.26 ng/mL
same,Granzyme [ng/ml] avg,[3]; [9],0.02 ng/mL
same,IFN-gamma [ng/ml] avg,[3]; [9],Below
same,IL-2 [ng/ml] avg,[3]; [9],Below
same,tumor-cell contact mediated release of granzyme,[3]; CD8-positive immune cells in co-culture with M21,enhanced
same,production of IL-2 and IFN-gamma,[3]; CD8-positive immune cells in co-culture with M21 melanoma cells,enhanced production of both cytokines specifically upon tumor cell contact
same,enhancement of IL-2 and IFN-gamma production,[3]; CD8-positive immune cells in the absence of tumor cells,such effect was not detected in the absence of tumor cells
